The source of these data is patent publication US4069346A, “Compositions and methods for anesthetizing an animal using deuterated analogues of halothane and chloroform” (The Dow Chemical Company, priority 1977, dated 1978).

Data set [1] concerns liver. The note with it: cited from earlier work; for damage to the liver: literature: Anesth. 45, 622 (1976) and 43, 392 (1975).
Data set [2] concerns male Fischer 344 rats. The note with it: 0.36 percent (v/v), two hours. As for the experimental part:
Halothane and deuterated halothane were vaporized by metering the liquid compounds at a controlled rate into a temperature regulated vaporization flask held at 150° C. The vapor was swept into the air inlet of a 30 liter glass exposure chamber at a rate of 6 liters/minute. The concentration of the anesthetic in the exposure chamber was monitored by gas-liquid chromatography using direct gas sampling loops.
Using the same equipment to expose the animals as that of Example 2, three groups of 10 male Fischer 344 rats were exposed to room air, 0.36 percent (v/v) chloroform and 0.36 percent (v/v) deuterated chloroform for two hours. The animals were maintained two to a cage for 24 hours following the exposure. At the end of this period, the animals were decapitated and blood was collected in plastic centrifuge tubes and allowed to clot. The SGPT levels were determined using a commercially available method. SGPT concentrations of each group of animals were compared with the other groups by nonparametric analysis of variance.

Data set [3] has as its system liver. Nature of the data set: Relative hepatotoxicity of chloroform: serum glutamic-pyruvic transaminase (SGPT) level as indicator of liver damage after inhalation (Example 3). The data set is classed as in vivo, male Fischer 344 rats. The conditions noted are these: 0.36 percent (v/v); for SGPT level: inhaled two hours, blood collected after 24 hours, room air control 24.8 mμ/ml ± 2, groups of 10. An excerpt: (§1) Appl. Pharmacol., 9, 139-151 (1966), which used the serum glutamic-pyruvic transaminase (SGPT) level as an indicator of liver damage.

For data set [4], the system named is liver. Nature of the data set: SGPT as indication of liver toxicity after anesthesia with halothane and deuterated halothane (Example 4). The class given is in vivo, Fischer 344 rats. The conditions noted are these: 1 percent (v/v) in air, two hours; for SGPT levels, comparison with the control: 24 hours; for SGPT: blood collected after 24 hours, control 18.8. As for the experimental part: as §1
Using the same techniques as described in Example 3 above, Fischer 344 rats were anesthetized for two hours with halothane and deuterated halothane using an anesthetic concentration of 1 percent (v/v) in air. After 24 hours, the animals were sacrificed and the blood collected from each. SGPT was run on each blood sample as in indication of liver toxicity.

For data set [5], the system named is male Fischer 344 rats. Nature of the data set: Anesthetic properties on inhalation, halothane vs deuterated analogue (Example 2). The data set is classed as in vivo. The conditions noted are these: 0.75 volume/volume, 2 hours. As to the method:
(§2) Three groups of 6 male Fischer 344 rats (6 months of age, 200-300 grams) were exposed to room air and 0.75 volume/volume halothane or the deuterated analogue for a period of 2 hours. Following exposure, all animals were maintained for 72 hours. […] The serum inorganic bromide concentration was determined using a specific ion electrode (Orion).

A short description of data set [6]: Serum inorganic bromide concentration 72 hours after inhalation exposure. The class given is in vivo, male Fischer 344 rats. The note with it: 0.75 volume/volume, inhaled 2 hours, analysis of variance. As for the experimental part:
as §2

In the case of `ClC(Cl)Cl` [chloroform], the “damage to the liver” value with liver [1] is recorded as “in some instances they cause damage to the liver”. Also, the “anesthetic properties, difference between chloroform and deuterated chloroform” value in the data set with male Fischer 344 rats [2] was “no difference in the anesthetic properties”. The same molecule registered an SGPT level in the data set on liver [3] of 56.3 mμ/ml.

Consider `[2H]C(Cl)(Cl)Cl` [deuterated chloroform], for which the “anesthetic properties, difference between chloroform and deuterated chloroform” value in the data set on male Fischer 344 rats [2] is given as “no difference in the anesthetic properties”. The molecule also had an SGPT level in the data set with liver [3] of 38.3 mμ/ml. Besides, the “SGPT level, difference between chloroform and deuterated chloroform treated groups” value in the data set on liver [3] (two hours, 24 hours, nonparametric analysis of variance) was “significant at p<0.05”.

As for `[2H]C(Cl)(Br)C(F)(F)F` (stereo not drawn) [deuterated halothane, 2-bromo-2-chloro-1,1,1-trifluoroethane-d], in the data set with liver [4], the “SGPT levels, comparison with the control” value was “not significantly different from the control” and the SGPT turned out to be 19.6 mμ/ml. Besides, the “anesthetic properties, difference between halothane and the deuterated analogue” value in the data set on male Fischer 344 rats [5] was “No difference in anesthetic properties”.

Regarding `FC(F)(F)C(Cl)Br` (stereo not drawn) [halothane, 2-bromo-2-chloro-1,1,1-trifluorethane], in data set [6], the “serum bromide levels, comparison of halothane with deuterated halothane” value is listed as “significantly higher than those treated with deuterated halothane, p<0.01”. The “damage to the liver” value in the data set with liver [1] is listed as “in some instances they cause damage to the liver”. For the same molecule, the “inorganic bromide in the blood” value with liver [1] (literature: Anesthes. 44, 194 (1976)) is given as “elevation of inorganic bromide in the blood”. Moreover, in the data set with liver [4], the “SGPT levels, comparison with the control” value is recorded as “significant increase in SGPT levels” and the SGPT is listed as 24.0 mμ/ml. For the same molecule, in the data set with male Fischer 344 rats [5], the “anesthetic properties, difference between halothane and the deuterated analogue” value is “No difference in anesthetic properties”.
